Results: publication PMC12430079, “Comprehensive UPLC-MS/MS Method for Quantifying Four Key Intestinal Permeability Markers in Caco-2 Models” (Molecules, 2025)
Read-outs that look alike come from different tables or passages of the source.

What was measured:
Caco-2 cells = conditions: 4 h, 37 °C
Caco-2 cell monolayer = conditions: Caco-2 monolayer, apical pH 6.0 / basolateral pH 7.4, 4 h, without verapamil as inhibitor
physchem = conditions: Recovery under stability condition
Procedure: These tests included assessing short-term stability at room temperature, long-term stability during storage at −20 °C for up to 45 days, and stability across three freeze-thaw cycles. Additionally, the stability of the analytes was tested in the media used for intestinal permeability assays, specifically HBSS with MES and HEPES buffers at pH 6.0 and 7.4.

in vitro = conditions: human, Caco-2

Apparent permeability (Papp) A→B (Caco-2 cell monolayer) | Apparent permeability (Papp) B→A (Caco-2 cell monolayer) | recovery (physchem) | recovery at 36 d (physchem) | efflux ratio (in vitro) | Compound | Cytotoxicity (LDH release) (Caco-2 cells; 50 µM) | Cytotoxicity (LDH release) (Caco-2 cells; 5 µM)
 |  |  |  |  | CC(C)NCC(O)COc1ccc(CC(N)=O)cc1 (stereo not drawn) [Atenolol, atenolol] | did not induce cytotoxicity | 
high | high | 86.5 ± 21% | 87.7 ± 5.12% | ~1 | CC(C)NCC(O)COc1cccc2ccccc12 (stereo not drawn) [Propranolol, propranolol] |  | did not induce cytotoxicity
 |  | 87.5 ± 6.3% | 86.2 ± 1.2% |  | C=C[C@H]1C[N@@]2CC[C@H]1C[C@@H]2[C@@H](O)c1ccnc2ccc(OC)cc12 [Quinidine, quinidine] |  | 
